Laboratory results published in PubChem BioAssay AID1963435 (Molecular Pharmacology Branch, DTP, NCI, 2024).

System: PANC-1 complex spheroid growth, percent test/control
Assay: Anticancer human tumor PANC-1 cell line growth inhibition [Asc];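 note: spheroids exposed to agents for 7 days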;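 for viability, T/C: percent viability relative to DMSO vehicle wells taken as 100%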
Conditions: for IC50: curve of first compound; for viability, T/C: stronger effect = lower value
Method in brief: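 Stromal components (HUVEC and hMSC) are co-assembled with the cancer cells into multicellular spheroids. Drugs are then added singly or paired, at concentrations falling by half-log increments from a clinically achievable maximum, capped at 10 microM without known Cmax.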

[1] = second compound 0.00316 µM, first compound 0.00316 µM
[2] = second compound 0.00316 µM, first compound 0.01 µM
[3] = second compound 0.00316 µM, first compound 0.0316 µM
[4] = second compound 0.00316 µM, first compound 0.1 µM
[5] = second compound 0.00316 µM, first compound 0.316 µM
[6] = second compound 0.00316 µM, first compound 1 µM
[7] = second compound 0.01 µM, first compound 0.00316 µM
[8] = second compound 0.01 µM, first compound 0.01 µM
[9] = second compound 0.01 µM, first compound 0.0316 µM
[10] = second compound 0.01 µM, first compound 0.1 µM
[11] = second compound 0.01 µM, first compound 0.316 µM
[12] = second compound 0.01 µM, first compound 1 µM
[13] = second compound 0.0316 µM, first compound 0.00316 µM
[14] = second compound 0.0316 µM, first compound 0.01 µM
[15] = second compound 0.0316 µM, first compound 0.0316 µM
[16] = second compound 0.0316 µM, first compound 0.1 µM
[17] = second compound 0.0316 µM, first compound 0.316 µM
[18] = second compound 0.0316 µM, first compound 1 µM
[19] = second compound 0.1 µM, first compound 0.00316 µM
[20] = second compound 0.1 µM, first compound 0.01 µM
[21] = second compound 0.1 µM, first compound 0.0316 µM
[22] = second compound 0.1 µM, first compound 0.1 µM
[23] = second compound 0.1 µM, first compound 0.316 µM
[24] = second compound 0.1 µM, first compound 1 µM
[25] = second compound 0.316 µM, first compound 0.00316 µM
[26] = second compound 0.316 µM, first compound 0.01 µM
[27] = second compound 0.316 µM, first compound 0.0316 µM
[28] = second compound 0.316 µM, first compound 0.1 µM
[29] = second compound 0.316 µM, first compound 0.316 µM
[30] = second compound 0.316 µM, first compound 1 µM
[31] = second compound 1 µM, first compound 0.00316 µM
[32] = second compound 1 µM, first compound 0.01 µM
[33] = second compound 1 µM, first compound 0.0316 µM
[34] = second compound 1 µM, first compound 0.1 µM
[35] = second compound 1 µM, first compound 0.316 µM
[36] = second compound 1 µM, first compound 1 µM

SMILES: CCN1CCN(Cc2ccc(Nc3ncc(F)c(-c4cc(F)c5nc(C)n(C(C)C)c5c4)n3)nc2)CC1 + CNC(C)C(=O)NC1CN(S(=O)(=O)c2cccc(S(=O)(=O)N3CCC4CCC(C(=O)NC(c5ccccc5)c5ccccc5)N4C(=O)C(NC(=O)C(C)NC)C3)c2)CCC2CCC(C(=O)NC(c3ccccc3)c3ccccc3)N2C1=O
- IC50 (second compound 0.00316 µM): > 1000 nM
- IC50 (second compound 0.01 µM): > 1000 nM
- IC50 (second compound 0.0316 µM): > 1000 nM
- IC50 (second compound 0.1 µM): > 1000 nM
- IC50 (second compound 0.316 µM): > 1000 nM
- IC50 (second compound 1 µM): > 1000 nM
- viability, T/C [1]: 119%
- viability, T/C [2]: 108%
- viability, T/C [3]: 105%
- viability, T/C [4]: 117%
- viability, T/C [5]: 129%
- viability, T/C [6]: 143%
- viability, T/C [7]: 95.1%
- viability, T/C [8]: 96.8%
- viability, T/C [9]: 108%
- viability, T/C [10]: 116%
- viability, T/C [11]: 124%
- viability, T/C [12]: 127%
- viability, T/C [13]: 96%
- viability, T/C [14]: 101%
- viability, T/C [15]: 107%
- viability, T/C [16]: 112%
- viability, T/C [17]: 116%
- viability, T/C [18]: 136%
- viability, T/C [19]: 102%
- viability, T/C [20]: 102%
- viability, T/C [21]: 102%
- viability, T/C [22]: 97.4%
- viability, T/C [23]: 107%
- viability, T/C [24]: 118%
- viability, T/C [25]: 92.2%
- viability, T/C [26]: 91.8%
- viability, T/C [27]: 109%
- viability, T/C [28]: 105%
- viability, T/C [29]: 118%
- viability, T/C [30]: 129%
- viability, T/C [31]: 98.2%
- viability, T/C [32]: 98.2%
- viability, T/C [33]: 99.5%
- viability, T/C [34]: 96.5%
- viability, T/C [35]: 109%
- viability, T/C [36]: 113%

SMILES: Cn1ncnc1[C@H]1c2n[nH]c(=O)c3cc(F)cc(c23)N[C@@H]1c1ccc(F)cc1 + CNC(C)C(=O)NC1CN(S(=O)(=O)c2cccc(S(=O)(=O)N3CCC4CCC(C(=O)NC(c5ccccc5)c5ccccc5)N4C(=O)C(NC(=O)C(C)NC)C3)c2)CCC2CCC(C(=O)NC(c3ccccc3)c3ccccc3)N2C1=O
- IC50 (second compound 0.00316 µM): > 100 nM
- IC50 (second compound 0.01 µM): > 100 nM
- IC50 (second compound 0.0316 µM): > 100 nM
- IC50 (second compound 0.1 µM): > 100 nM
- IC50 (second compound 0.316 µM): > 100 nM
- IC50 (second compound 1 µM): > 100 nM
- viability, T/C (second compound 0.00316 µM, first compound 0.000316 µM): 110%
- viability, T/C (second compound 0.00316 µM, first compound 0.001 µM): 117%
- viability, T/C [1]: 128%
- viability, T/C [2]: 114%
- viability, T/C [3]: 113%
- viability, T/C [4]: 109%
- viability, T/C (second compound 0.01 µM, first compound 0.000316 µM): 105%
- viability, T/C (second compound 0.01 µM, first compound 0.001 µM): 108%
- viability, T/C [7]: 99.6%
- viability, T/C [8]: 117%
- viability, T/C [9]: 110%
- viability, T/C [10]: 111%
- viability, T/C (second compound 0.0316 µM, first compound 0.000316 µM): 96.8%
- viability, T/C (second compound 0.0316 µM, first compound 0.001 µM): 92.8%
- viability, T/C [13]: 96.6%
- viability, T/C [14]: 109%
- viability, T/C [15]: 108%
- viability, T/C [16]: 113%
- viability, T/C (second compound 0.1 µM, first compound 0.000316 µM): 94.3%
- viability, T/C (second compound 0.1 µM, first compound 0.001 µM): 102%
- viability, T/C [19]: 97.3%
- viability, T/C [20]: 101%
- viability, T/C [21]: 109%
- viability, T/C [22]: 115%
- viability, T/C (second compound 0.316 µM, first compound 0.000316 µM): 109%
- viability, T/C (second compound 0.316 µM, first compound 0.001 µM): 98.4%
- viability, T/C [25]: 97.5%
- viability, T/C [26]: 99.6%
- viability, T/C [27]: 111%
- viability, T/C [28]: 102%
- viability, T/C (second compound 1 µM, first compound 0.000316 µM): 87.3%
- viability, T/C (second compound 1 µM, first compound 0.001 µM): 107%
- viability, T/C [31]: 111%
- viability, T/C [32]: 99%
- viability, T/C [33]: 95.5%
- viability, T/C [34]: 102%

SMILES: O=C(c1ccc(F)c(F)c1Nc1ccc(I)cc1F)N1CC(O)([C@@H]2CCCCN2)C1 + CNC(C)C(=O)NC1CN(S(=O)(=O)c2cccc(S(=O)(=O)N3CCC4CCC(C(=O)NC(c5ccccc5)c5ccccc5)N4C(=O)C(NC(=O)C(C)NC)C3)c2)CCC2CCC(C(=O)NC(c3ccccc3)c3ccccc3)N2C1=O
- IC50 (second compound 0.00316 µM): > 1000 nM
- IC50 (second compound 0.01 µM): > 1000 nM
- IC50 (second compound 0.0316 µM): > 1000 nM
- IC50 (second compound 0.1 µM): > 1000 nM
- IC50 (second compound 0.316 µM): > 1000 nM
- IC50 (second compound 1 µM): > 1000 nM
- viability, T/C [1]: 98.6%
- viability, T/C [2]: 88.8%
- viability, T/C [3]: 90.1%
- viability, T/C [4]: 88%
- viability, T/C [5]: 90.5%
- viability, T/C [6]: 84.9%
- viability, T/C [7]: 104%
- viability, T/C [8]: 86.1%
- viability, T/C [9]: 89.5%
- viability, T/C [10]: 89%
- viability, T/C [11]: 85.9%
- viability, T/C [12]: 85.2%
- viability, T/C [13]: 88.2%
- viability, T/C [14]: 86.1%
- viability, T/C [15]: 118%
- viability, T/C [16]: 93.6%
- viability, T/C [17]: 86.6%
- viability, T/C [18]: 87.3%
- viability, T/C [19]: 101%
- viability, T/C [20]: 86.4%
- viability, T/C [21]: 90.7%
- viability, T/C [22]: 90.3%
- viability, T/C [23]: 88.4%
- viability, T/C [24]: 87.3%
- viability, T/C [25]: 95.2%
- viability, T/C [26]: 89.5%
- viability, T/C [27]: 98.9%
- viability, T/C [28]: 89.9%
- viability, T/C [29]: 96.8%
- viability, T/C [30]: 89.3%
- viability, T/C [31]: 91.4%
- viability, T/C [32]: 93%
- viability, T/C [33]: 89.7%
- viability, T/C [34]: 90%
- viability, T/C [35]: 90.6%
- viability, T/C [36]: 91.6%
